Experimental data: patent US8143268B2, “Bicyclic pyrimidinones and uses thereof” (Avexa Limited, priority 2006, dated 2012)
Like-named read-outs stand apart in the source and are kept apart here.

Assays:
integrase = biological target: T1, integrase (Human immunodeficiency virus type 1 group M subtype B, UniProt P04585); assay: HIV integrase 3′ processing/strand transfer assay (IC50); assay type: biochemical
T1 construct: Each reaction (40 ul) contains 30 nM substrate DNA ad 400 ng integrase
Experimental: A combined 3′-processing/strand transfer assay procedure similar to that published (Ovenden et al. Phytochemistry. 2004 December; 65(24):3255-9.) could be used. The assay could be adapted to a 96 well plate format. Briefly, 400 ng of […] is incubated with 30 nM substrate DNA, consisting of annealed U5 LTR sequence oligonucleotides tagged with Digoxigenin (DIG; 5′-[…]-DIG-3′ (SEQ ID NO: 1)) or biotin (5′-Bio-[…]-3′ (SEQ ID NO: 2)) so that each substrate has either a DIG or Bio tag on opposite strands. Reactions are carried out for 2 hrs at 37° C., products generated as a result of 3′ processing and strand transfer activity are bound to streptavidin plates and detected with using anti-DIG-alkaline phosphatase conjugate and p-nitro phenyl phosphate substrate.
The strand transfer specific assay is of similar format to that of the 3′ processing/strand transfer combined assay except that it uses a biotinylated substrate that represents a pre-processed LTR end (5′-Bio-[…]-3′ (SEQ ID NO: 3)).
Oligonucleotides 5′-biotin-[…]-3′ (SEQ ID NO: 3) and 5′-[…]-Dig-3′ (SEQ ID NO: 1) are annealed in 10 mM Tris-Cl pH8.0, 100 mM NaCl, 2 mM EDTA at a final concentration of 30 uM.
Each reaction (40 ul) contains 30 nM substrate DNA ad 400 ng integrase in a reaction buffer comprising 20 mM Tris-Cl pH7.5, 25 mM NaCl, 5 mM MnCl2, 5 mM MgCl2, 5 mM B-ME, 50 ug/mL BSA, 0.05% (v/v) Tween-20.
Compounds are added in DMSO at 1/10 final reaction volume.
Reactions are incubated at 37° C. for 2 hr followed by the addition of 60 ul adjustment buffer containing 33 mM Tris-Cl pH 7.5, 664 mM NaCl, 16.6 mM EDTA, 0.166 mg/mL sonicated salmon sperm DNA.
The samples are then transferred to Streptavidin coated plates and products of the enzyme reactions are allowed to bind for 1 hr at room temperature.
Plates are then washed with 3×5 min with 30 mM NaOH, 200 mM NaCl, 1 mM EDTA then 3×5 min with wash 2: 10 mM Tris-Cl pH8.0, 6 mM EDTA, 0.1 mg/mL nuclease free BSA.
Anti-digoxigenin-phosphatase Fab (Roche, 0.1 U/mL)), diluted 1/2000 in wash 2 buffer is then added to each well and plates incubated 1 hr at 37° C.
Plates are then washed 3 times with TBS— Tween-20 (0.1%) then twice with TBS and 100 ul substrate (1 mg/mL p-nitrophenylphosphate in 0.1M Tris, pH 9.8) is added and plates incubated until sufficient colour is developed.

HIV = assay: Inhibition of HIV replication (p24); assay type: cell-based; settings: Human immunodeficiency virus 1; concentration inhibiting HIV p24 production to 50% of no drug controls
Experimental: (§1) Cells are seeded into 96 well microtitre plates at 50,000 cells per 50 μl per well in RF-containing […] polybrene (RF-10/2). Compounds are prepared to 4× final concentration in RF-10/2, and 30 L added to cells. Virus (40 L in RF-10/2 containing 1600 pfu) is added to each well or 40 L RF-10/2 for negative controls and for assaying compound cytotoxicity. After 24 hrs, an additional 90 μL of media or media containing 1× compound is added to each well. At 4 days post infection, 100 μL of media is removed from each well and replaced with 100 μl of fresh media with or without compound. Forty eight hours later supernatants are harvested and levels of extracellular p24 determined. Supernatants are diluted 1 in 10,000 and p24 levels assayed using the Vironostika p24 assay kit. EC50 is calculated as the concentration required to inhibit HIV p24 production to 50% that of no drug controls.

[1] = Compound cytotoxicity (CC50); assay type: cell-based; settings: wells without virus
Experimental: as §1

[2] = biological target: T2, HIV integrase enzyme (Q148K) (Human immunodeficiency virus type 1 group M subtype B, UniProt P04585, Q1295K); assay: Strand transfer assay, mutant (Q148K) HIV integrase; assay type: biochemical; settings: FIG. 1
Experimental: A strand transfer assay procedure similar to that published (Ovenden et al. Phytochemistry. 2004 December; 65(24):3255-9.) is used. Briefly, 400 ng of the enzyme, wild type or drug resistant mutant, is mixed with the compound to be tested and incubated with 30 nM substrate DNA. The substrate DNA is designed to mimic HIV DNA termini that has undergone 3′ end processing, and consists of the annealed U5 LTR sequence oligonucleotides tagged with Digoxigenin (DIG; 5′-[…]-DIG-3′ (SEQ ID NO: 1)) or biotin (5′-Bio-[…]-3′ (SEQ ID NO: 3)) so that each substrate has either a DIG or Bio tag on opposite strands. Reactions are carried out for 1 hr at 37° C. Products generated as a result of strand transfer activity are bound to streptavidin plates and detected using anti-DIG-alkaline phosphatase conjugate and p-nitro phenyl phosphate substrate.
FIG. 1 represents as an example, strand transfer assay results from selected compounds against wild-type integrase and the integrase containing the Q148K mutation.
HIV integrase was mutated within a shuttle vector (pGEM) containing the majority of the HIV-I gag and pol sequence using site directed mutagenesis to generate integrase sequences that have been published as conferring resistance to published integrase inhibitors. These include, but are not limited to, mutations such as Q148K. […]

[3] = biological target: T2, HIV integrase enzyme (Q148K); settings: Q148K mutant enzyme; cited from earlier work
[4] = integrase assay, which of Example 28.1/28.2 not stated, read-out: IC50

Question: Which IC50 (integrase; [4]) does the source give for `Cc1ccc2nc(-c3nnc(-c4ccccc4)o3)c(O)c(=O)n2c1` here?
Answer: > 1000 nM

Question: Which IC50 (integrase; [4]) does the source give for `Cc1ccc2nc(-c3nnc(Cc4ccc(F)cc4)s3)c(O)c(=O)n2c1` here?
Answer: 1 to 1000 nM

Question: For `Cc1ccc2nc(-c3ncc(-c4ccc(F)cc4)o3)c(O)c(=O)n2c1`, which IC50 (integrase; [4]) is on record?
Answer: > 1000 nM

Question: For `Cc1ccc2nc(-c3ncc(Cc4ccc(F)cc4)o3)c(O)c(=O)n2c1`, which IC50 (integrase; [4]) is on record?
Answer: 1 to 1000 nM

Question: With `Cc1ccc2nc(-c3noc(Cc4ccc(F)cc4)n3)c(O)c(=O)n2c1` as the molecule, how does the IC50 (integrase; [4]) read?
Answer: 1 to 1000 nM

Question: What does the source list for `O=C(NCc1ccc(F)cc1)c1nc2ccc(Br)cn2c(=O)c1O` [7-Br, CONHCH2 (4F-Ph), 7-Bromo-3-hydroxy-4-oxo-4H-pyrido[1,2-a]pyrimidine-2-carboxylic acid 4-fluoro-benzylamide]?
Answer: EC50 (HIV): 1 to 1000 nM; CC50 at 6 days [1]: > 1000 nM; IC50 (integrase): 1000 to 10000 nM

Question: Which results are given for `Cc1ccc2nc(C(=O)NCc3ccc(Cl)c(Cl)c3)c(O)c(=O)n2c1` [7-Me, CONHCH2 (3,4-ClPh), 3-Hydroxy-7-methyl-4-oxo-4H-pyrido[1,2-a]pyrimidine-2-carboxylic acid 3,4-dichloro-benzylamide]?
Answer: EC50 (HIV): 1 to 1000 nM; CC50 at 6 days [1]: > 1000 nM; IC50 (integrase): 1 to 1000 nM

Question: For `Cc1ccc2nc(C(=O)NCc3ccc(F)cc3)c(O)c(=O)n2c1` [7-Me, CONHCH2 (4F-Ph), 3-Hydroxy-7-methyl-4-oxo-4H-pyrido[1,2-a]pyrimidine-2-carboxylic acid 4-fluoro-benzylamide], which EC50 (HIV) is on record?
Answer: 1 to 1000 nM

Question: What about the CC50 at 6 days [1] of the same molecule?
Answer: > 1000 nM

Question: And the IC50 (integrase)?
Answer: 1000 to 10000 nM

Question: With `O=C(NCc1ccc(Cl)c(Cl)c1)c1nc2ccc(N3CCOCC3)cn2c(=O)c1O` [Example 6.13, 3-Hydroxy-7-morpholin-4-yl-4-oxo-4H-pyrido[1,2-a]pyrimidine-2-carboxylic acid 3,4-dichloro-benzylamide] as the molecule, how does the “activity against HIV integrase enzyme (Q148K)” value [2] read?
Answer: particularly high activity

Question: For `Cc1nnc(C(=O)NC(C)(C)c2nc(C(=O)NCc3ccc(F)cc3)c(O)c(=O)n2C)o1` [Raltegravir], which “resistance of Q148K HIV integrase to published integrase inhibitors” value [3] is on record?
Answer: resistant
